Molecules are shown by their SMILES.

Data set [1] has as its target T1, hCA IX (Homo sapiens, UniProt Q16790).
T1 construct: made in house
Kind of data set: CA inhibition, stopped-flow CO2 hydration assay. The format is biochemical. Here is the method: (§1) The CO2 hydration activity of the four hCA isoforms was monitored using an Applied Photophysics stopped-flow instrument. Phenol red (at a concentration of 0.2 mM) was used as an indicator, working at the absorbance maximum of 557 nm, with 10 mM HEPES (pH 7.4) as a buffer, and 20 mM NaClO4 (for maintaining constant the ionic strength), following the initial rates of the CA-catalyzed CO2 hydration reaction for a period of 10–100 s. To determine the kinetic parameters by Lineweaver-Burk plots and the inhibition constants, a concentration of CO2 between 1.7 to 17 mM was used. At least six measurements of the original 5–10% reaction were used to assess the initial velocity for each inhibitor. The uncatalyzed rates were determined and detracted from the total observed rates. Stock inhibitor solutions (10–100 mM) were prepared in distilled-deionized water, and dilutions up to 0.1 nM were done with the buffer test. […] The inhibition constants were obtained by non-linear least-squares methods using PRISM 6 and the Cheng-Prusoff equation, as reported earlier, and represent the mean from at least three different determinations.

Data set [2] addresses T2, hCA II (Homo sapiens, UniProt P00918).
T2 construct: made in house
Kind of data set: CA inhibition, stopped-flow CO2 hydration assay. As to conditions: stopped-flow technique; mean from three assays. The format is biochemical. Here is the method:
as §1

The target in data set [3] is T3, hCA I (Homo sapiens, UniProt P00915).
T3 construct: made in house
T3 sequence (P00915 whole entry): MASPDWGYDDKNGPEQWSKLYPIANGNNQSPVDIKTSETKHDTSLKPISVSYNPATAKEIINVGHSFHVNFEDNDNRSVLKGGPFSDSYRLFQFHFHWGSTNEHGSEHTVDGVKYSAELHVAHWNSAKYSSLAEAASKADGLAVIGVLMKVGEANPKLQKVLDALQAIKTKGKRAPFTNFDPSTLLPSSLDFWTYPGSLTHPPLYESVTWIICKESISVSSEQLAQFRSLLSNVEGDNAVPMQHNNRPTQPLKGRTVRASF
Put plainly: CA inhibition, stopped-flow CO2 hydration assay. The format is biochemical. The following applies: stopped-flow technique; mean from three assays. Here is the method: as §1

The target in data set [4] is T4, hCA XII (Homo sapiens, UniProt O43570).
T4 construct: made in house
T4 sequence (O43570 25-354): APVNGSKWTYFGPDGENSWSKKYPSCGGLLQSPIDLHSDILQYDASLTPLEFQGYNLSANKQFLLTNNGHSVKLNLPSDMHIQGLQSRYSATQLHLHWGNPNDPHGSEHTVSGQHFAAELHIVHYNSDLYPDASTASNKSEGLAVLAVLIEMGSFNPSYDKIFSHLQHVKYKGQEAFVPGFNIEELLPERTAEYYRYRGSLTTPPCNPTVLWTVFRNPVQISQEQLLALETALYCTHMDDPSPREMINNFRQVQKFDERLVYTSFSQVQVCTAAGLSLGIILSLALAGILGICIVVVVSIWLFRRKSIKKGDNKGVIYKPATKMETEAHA
Kind of data set: CA inhibition, stopped-flow CO2 hydration assay. The format is biochemical. As to conditions: stopped-flow technique; mean from three assays. As to the method:
as §1

For data set [5], the system named is A431 skin cancer cells. Kind of data set: Antiproliferative activity, MTT test. The format is cell-based, human. As to conditions: 72 h, hypoxic conditions. The text has this: To evaluate the influence of CA inhibition on the antiproliferative activity, we selected five compounds 4b, f, m, n and 10 with different inhibition profiles against CA IX for in-depth testing on cancer cells with increased CA IX expression. The database www.proteinatlas.org (accessed on 13 October 2022) contains data on gene expression in various cell lines. According to the data obtained from this database, A431 cells express CA IX at a very high level, which distinguishes them from human cell lines belonging to other tissues [https://www.proteinatlas.org/ENSG00000107159-CA9/cell+line (accessed on 13 October 2022)]. A431 cells are skin cancer cells, and their growth has already been intensely analyzed in hypoxia. […] Moreover, Ren and colleagues described that hypoxia modulates cellular pathways in A431 cells, which are associated with radioresistance and enhanced migration. Given the observations described above, we were expecting to reveal the high antiproliferative activity of the selected compounds against skin cancer cells. […] In hypoxia, the activity of tested compounds was increased, but the 50% inhibition of growth was never achieved.
The MCF7 human breast, A431 human skin cancer cells and K562 (ATCC CCL-243) chronic myelogenous leukemia cells were obtained from the ATCC collection. The MDR subline K562/4 [77] […] The growth inhibitory activity of compounds was assessed by the MTT test based on the metabolism of the MTT reagent (3-[4,5-dimethylthiazol-2-yl]-2,5-diphenyltetrazolium bromide) (Applichem) in living cells, with modifications as described previously in [49]. […] Culture plates were gently shaken, and the absorbance was measured at 571 nm with a reference wavelength of 630 nm on a MultiScan reader (ThermoFisher, Waltham, MA, USA). The viability of the cells was expressed as a percentage of the control. Dose-response curves were analyzed by regression analysis using sigmoid curves (Log(concentration) vs. normalized absorbance).
(In general: Formazan colour is commonly taken as a measure of viable cells.)

For data set [6], the system named is K562/4 cells. Kind of data set: Reversal of chemoresistance to Dox, MTT test. The format is cell-based, human. The text has this:
Earlier, Kopecka and colleagues have shown that CA XII can interact with P-gp and influence its activity. Subsequently, silencing or inhibition of CA XII by chemical agents may restore the sensitivity to Dox of resistant K562 and other tumor cells. Given the potent inhibition of 4f against CA XII and the activity of 4e against K562, we examined their ability to reverse the chemoresistance of K562/4 with P-gp to Dox.
The MCF7 human breast, A431 human skin cancer cells and K562 (ATCC CCL-243) chronic myelogenous leukemia cells were obtained from the ATCC collection. The MDR subline K562/4 [77] (kind gift of Dr. Alexander Shtil, Blokhin N.N. National Medical Research Center of Oncology) was obtained by stepwise selection of K562 cells for survival under continuous exposure to Dox. This subline expresses the MDR1 gene and functional P-gp and is characterized by a high resistance index for Dox. The MCF7 and A431 cells were cultured in standard 4.5 g/L glucose DMEM medium (Gibco) supplemented with 10% FCS (HyClone), 2 mM L-glutamine, 50 U/mL penicillin, 50 µg/mL streptomycin (PanEco), 100 µg/mL sodium pyruvate (Santa Cruz) at 37 °C, 5% CO2 and 80–85% humidity in NuAire incubator. Suspension myelogenous leukemia cells (K562, K562/4) were propagated in RPMI-1640 (PanEco) with 5% FCS (HyClone), 2 mM L-glutamine, 100 U/mL penicillin, and 100 µg/mL streptomycin at 37 °C, 5% CO2, and 80–85% humidity in Binder incubator. Cells in the logarithmic phase of growth were used in the experiments. The growth inhibitory activity of compounds was assessed by the MTT test based on the metabolism of the MTT reagent (3-[4,5-dimethylthiazol-2-yl]-2,5-diphenyltetrazolium bromide) (Applichem) in living cells, with modifications as described previously in [49]. Compounds at different concentrations in 100 μL of the appropriate medium were added, and the cells were grown for 72 h. The hypoxia (1% O2) conditions were simulated in Binder multigas incubator, as described in [49]. After incubation with compounds, the medium was removed, the MTT reagent that was dissolved in the medium was added to the final concentration of 0.2 mg/mL to each well, and the incubation was performed for 2 h. Then the cell supernatants were removed, and purple formazan crystals were dissolved in 100% DMSO (350 μL per well). Culture plates were gently shaken, and the absorbance was measured at 571 nm with a reference wavelength of 630 nm on a MultiScan reader (ThermoFisher, Waltham, MA, USA). The viability of the cells was expressed as a percentage of the control. Dose-response curves were analyzed by regression analysis using sigmoid curves (Log(concentration) vs. normalized absorbance).
Figure 6 Susceptibility of resistant K562/4 line to combinations of Dox (25 µM) with indoline-5-sulfonamides 4e and 4f. […]

The Ki is a dissociation constant, usually derived from enzyme kinetics or from competition with a known ligand. The low end stands for a stronger hold on the target, the high end for a looser hold on the target. As to `NS(=O)(=O)c1ccc2c(c1)CCN2C(=O)c1cccc(Cl)c1` [Compound 4f, 1-(3-Chlorobenzoyl)indoline-5-sulfonamide], the “fold higher activity against CA IX compared with 4e” value in data set [1] (in vitro KI, 4f vs 4e) is on record as approximately 10 fold. Further, the Ki in data set [1] (stopped-flow technique, mean from three assays) turned out to be 141 nM; in data set [2], 31.3 nM; in data set [3], 304 nM; in data set [4] it was 112 nM. Besides, the “inhibition of growth of A431 cells, hypoxia” value in data set [5] is 44%. The “effect of combination with Dox on viable K562/4 cells” value in data set [6] (combination with Dox (25 µM)) was “decline of viable K562/4 cells”. Moreover, the “cytotoxic activity against MDR subline K562/4 as monoagent” value in data set [6] (monoagent) was “low cytotoxic activity”.
